Like-named read-outs stand apart in the source and are kept apart here.

The subject of assay [1] is hematologic tumor cell lines. The assay can be described thus: MTS cell proliferation assay, panel of hematologic cancer cell lines. The assay is classed as cell-based. In a few lines:
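Human hematologic cancer lines (myeloma, lymphoma, leukemia) were treated 72 hr with compound; MTS/PMS absorbance at 490 nm gave percent of DMSO control.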
(In general: Tetrazolium assays rely on reduction of a dye to a coloured formazan, in cell work by metabolically active cells.)

Assay [2] has as its system WSU-DLCL2. Nature of the assay: MTS cell proliferation assay, WSU-DLCL2. The assay is classed as cell-based. The settings on record: Homo sapiens, WSUDLCL2; WSU-DLCL2, 72 hr. The procedure:
(§1) Cell proliferation was measured using the CellTiter 96 Aqueous Non-Radioactive Cell Proliferation Assay (Promega). The CellTiter 96® AQueous Assay is composed of solutions of a tetrazolium compound [3-(4,5-dimethylthiazol-2-yl)-5-(3-carboxymethoxyphenyl)-2-(4-sulfophenyl)-2H-tetrazolium, inner salt; MTS] and an electron coupling reagent (phenazine methosulfate) PMS. MTS is bioreduced by cells into a formazan product that is soluble in tissue culture medium. The absorbance of the formazan product at 490 nm can be measured directly from assay plates without additional processing. The quantity of formazan product as measured by the amount of 490 nm absorbance is directly proportional to the number of living cells in culture. Cells were seeded into 96-well or 384-well clear plates in a volume of 200 μL (96-well) or 50 μL (384-well) at optimized densities ranging from 1,000 to 40,000 cells per well for 96-well plates or 1,200 to 25,000 cells per well for 384-well plates depending on cell-line. After 4-6 hr recovery, serially diluted compounds in DMSO were added to the cells using (0.1% v/v final DMSO concentration). Cells were then grown at 37° C. in a humidified incubator with 5% CO2 for 72 hr. A 20:1 [3-(4,5-dimethylthiazol-2-yl)-5-(3-carboxymethoxyphenyl)-2-(4-sulfophenyl)-2H-tetrazolium](MTS):phenazine methosulfate (PMS) solution in DPBS was made immediately before use, added to each well, and cells were incubated for 1.5 hr at 37° C. The absorbance at 490 nm was then measured using a platereader. Absorbance values were normalized as percent of control (cells incubated in the presence of 0.1% v/v DMSO). Sigmoidal dose-response curves were plotted using log(inhibitor) vs. response—Variable slope (four parameters) model with a top value constrained to 100% (GraphPad Prism version 6.00 for Windows, GraphPad Software, La Jolla California USA). […] Curves for compounds that reached a plateau were matched exactly to the measurement points. […]

In assay [3] the target is T1, Full-length PDK1 (Homo sapiens, UniProt O15530).
T1 construct: Full-length PDK1 protein (SignalChem) was dephosphorylated; purchased SignalChem
T1 sequence (O15530 1-556): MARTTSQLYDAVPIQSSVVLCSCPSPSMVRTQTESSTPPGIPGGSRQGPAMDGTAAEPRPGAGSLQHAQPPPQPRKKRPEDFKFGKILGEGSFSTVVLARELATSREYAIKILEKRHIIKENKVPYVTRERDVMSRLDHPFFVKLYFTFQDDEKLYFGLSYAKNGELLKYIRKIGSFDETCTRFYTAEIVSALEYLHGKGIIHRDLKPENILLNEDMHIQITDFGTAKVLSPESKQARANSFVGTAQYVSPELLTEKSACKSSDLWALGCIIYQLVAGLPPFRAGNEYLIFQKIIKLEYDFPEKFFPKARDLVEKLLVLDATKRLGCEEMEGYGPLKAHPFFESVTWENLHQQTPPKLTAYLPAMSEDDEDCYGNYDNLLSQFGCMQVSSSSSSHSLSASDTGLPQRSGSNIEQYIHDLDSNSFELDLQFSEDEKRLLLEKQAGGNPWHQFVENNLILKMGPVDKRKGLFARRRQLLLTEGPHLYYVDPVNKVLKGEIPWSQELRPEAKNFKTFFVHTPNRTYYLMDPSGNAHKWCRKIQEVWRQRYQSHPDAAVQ
Nature of the assay: PDK1 kinase activity assay (FRET). The settings on record: for inhibition of PDK1 kinase activity: phosphorylated and un-phosphorylated PDK1, FIGS. 2A and 2B. The format is biochemical. The procedure:
Full-length PDK1 protein (SignalChem) was dephosphorylated using GST-k-phosphatase (produced in house), which was subsequently removed using glutathione-agarose beads (Gold Biotechnology). […] Tb-pCrosstide antibody (ThermoFisher) was then added to a final concentration of 2 nM and the reaction was incubated for an additional 30 min. Fluorescence resonance energy transfer (FRET) was measured using a Tecan Infinite F500 plate reader with λex=340 nm, λem1=485 nm, λem2=520 nm.

Assay [4] addresses T2, Full-length phosphorylated PDK1 (Homo sapiens, UniProt O15530).
T2 sequence (O15530 1-556): T1 sequence (O15530 1-556)
Nature of the assay: Fluorescence polarization PIF-tide binding assay. The settings on record: PDK1 saturating amounts of compound, FIG. 13C. In general terms: Fluorescence polarisation rises when a labelled molecule tumbles more slowly, as on binding a larger partner.

In assay [5] the test system is Mec-1. The assay can be described thus: MTS cell proliferation assay, Mec-1. The assay is classed as cell-based. The settings on record: Homo sapiens, MEC1; Mec-1, 72 hr. As to the method:
as §1

Where [6] appears, read: range against the various cell lines of Table 1, read-out: inhibition of cell proliferation EC50.

For `C[C@H](NC(=O)c1nc(C#N)cnc1NCc1ccc(-c2cnc3[nH]nc(N)c3n2)cc1)c1ccc(F)c(F)c1` [Compound 1, 3-[4-(3-Amino-1H-pyrazolo[3,4-b]pyrazin-5-yl)-benzylamino]-6-cyano-pyrazine-2-carboxylic acid [1-(3,4-difluoro-phenyl)-ethyl]-amide], the EC50 in assay [1] (setting [6]) is 3 to 853 nM; in assay [2], 543 nM; in assay [5], 415 nM. Further, the “inhibition of PDK1 kinase activity” value in assay [3] is “potent inhibitors of both phosphorylated and un-phosphorylated PDK1”. Moreover, the “PIF-tide binding to PDK1 (fluorescence polarization, words)” value in assay [4] is “significant inhibition of PIF-tide binding”.

Take `CNc1n[nH]c2ncc(-c3ccc(CNc4ncc(C#N)nc4C(=O)N[C@@H](C)c4ccc(F)c(F)c4)cc3)cc12` [Compound 2, 6-Cyano-3-[4-(3-methylamino-1H-pyrazolo[3,4-b]pyridin-5-yl)-benzylamino]-pyrazine-2-carboxylic acid [1-(3,4-difluoro-phenyl)-ethyl]-amide]: the “fold more potent than GSK2334470 in viability assays” value in assay [1] (72 hours viability assays) is reported as “at least 10 fold”. In addition, the “number of cell lines with growth inhibition at concentrations less than 500 nM” value in assay [1] (out of 16 cell lines) came to 15. In addition, the EC50 in assay [1] (panel of more than 20 cell lines derived from hematologic cancers, read-out: anti-proliferative activity EC50) was 3 to 900 nM; in assay [1] (setting [6]), 3 to 853 nM; in assay [1] (range over 16 cell lines, FIG. 3, read-out: potency in the cell proliferation assay (EC50)), below 1000 nM; in assay [2], 354 nM; in assay [5], 215 nM. Moreover, the “biochemical potency compared to GSK2334470” value in assay [3] was “comparable biochemical potency”. Further, the “inhibition of PDK1 kinase activity” value in assay [3] is “potent inhibitors of both phosphorylated and un-phosphorylated PDK1”. The “PIF-tide binding to PDK1 (fluorescence polarization, words)” value in assay [4] was “significant inhibition of PIF-tide binding”.
